Data set [1] deals with CEM cells. The experiment in a line: CEM cell assay, intrinsic toxicity of test compound (MTT, no virus). The format is cell-based. Particulars: CEM cells without virus, reduces cellular viability by 50%. The method, then: (§1) The effectiveness of the compounds tested in Part A was also determined in a CEM cell assay. The HIV inhibition assay method of acutely infected cells is an automated tetrazolium based calorimetric assay essentially that reported by Pauwles et al, J. Virol. Methods 20, 309-321 (1988). Assays were performed in 96-well tissue culture plates. CEM cells, a CD4^+ cell line, were grown in RPMI-1640 medium (Gibco) supplemented with a 10% fetal calf serum and were then treated with polybrene ([…]). An 80 μL volume of medium containing 1×10^4 cells was dispensed into each well of the tissue culture plate. To each well was added a 100 μL volume of test compound dissolved in tissue culture medium (or medium without test compound as a control) to achieve the desired final concentration and the cells were incubated at 37° C. for 1 hour. A frozen culture of HIV-1 was diluted in culture medium to a concentration of 5×10^4 TCID50 per mL (TCID50=the dose of virus that infects 50% of cells in tissue culture), and a 20 μL volume of the virus sample (containing 1000 TCID50 of virus) was added to wells containing test compound and to wells containing only medium (infected control cells). Several wells received culture medium without virus (uninfected control cells). Likewise, the intrinsic toxicity of the test compound was determined by adding medium without virus to several wells containing test compound. In summary, the tissue culture plates contained the following experiments:
(§2) In experiments 2 and 4, the final concentrations of test compounds were 1, 10, 100 and 500 μg/mL. Either azidothymidine (AZT) or dideoxyinosine (ddI) was included as a positive drug control. […] DMSO was added to all control wells at an appropriate concentration.
(§3) Following the addition of virus, cells were incubated at 37° C. in a humidified, 5% CO2 atmosphere for 7 days. Test compounds could be added on days 0, 2 and 5 if desired. On day 7, post-infection, the cells in each well were resuspended and a 100 μL sample of each cell suspension was removed for assay. A 20 μL volume of a 5 mg/mL solution of 3-(4,5-dimethylthiazol-2-yl)-2,5-diphenyltetrazolium bromide (MTT) was added to each 100 μL cell suspension, and the cells were incubated for 4 hours at […] in a 5% CO2 environment. […] To each sample was added 100 μL of 10% sodium dodecylsulfate in 0.01 N HCl to lyse the cells, and samples were incubated overnight. The absorbance at 590 nm was determined for each sample using a Molecular Devices microplate reader. Absorbance values for each set of wells is compared to assess viral control infection, uninfected control cell response as well as test compound by cytotoxicity and antiviral efficacy.
(§4) The calculated EC50 (effective concentration 50%, i.e., the concentration at which the inhibitor compound reduces cytopathicity by 50%) and TD50 (toxic dose 50%, i.e., the concentration at which the inhibitor compound reduces cellular viability by 50%) values for these compounds are also shown in Table 1.

Data set [2] has as its target T1, HIV protease (Human immunodeficiency virus type 1 group M subtype B, UniProt P04585).
T1 construct: final enzyme concentration of 12.3 nanomolar, based on a molecular weight of 10,780
The experiment in a line: HIV protease enzyme assay (fluorogenic substrate). It is filed as biochemical. Particulars: for pIC50: HIV protease 12.3 nanomolar, substrate 80 μM, pH 6.4, read-out: Enzyme Inhibition (IC50); for inhibition at 10 µM: read-out: inhibition of the HIV enzyme. The method, then:
The calculated IC50 (inhibiting concentration 50%, i.e., the concentrations at which the inhibitor compound reduces enzyme activity by 50%) values are shown in Table 1. The enzyme method is described below. The substrate is 2-aminobenzoyl-Ile-Nle-Phe(p-NO2)-Gln-ArgNH2. The positive control is MVT-101 (Miller, M. et al, Science, 246, 1149 (1989)]. The assay conditions are as follows:
Assay buffer: 20 mM sodium phosphate, pH 6.4
The above described substrate is dissolved in DMSO, then diluted 10 fold in assay buffer. Final substrate concentration in the assay is 80 μM.
HIV protease is diluted in the assay buffer to a final enzyme concentration of 12.3 nanomolar, based on a molecular weight of 10,780.
The final concentration of DMSO is 14% and the final concentration of glycerol is 18%. The test compound is dissolved in DMSO and diluted in DMSO to 10× the test concentration; 10 μL of the enzyme preparation is added, the materials mixed and then the mixture is incubated at ambient temperature for 15 minutes. The enzyme reaction is initiated by the addition of 40 μL of substrate. The increase in fluorescence is monitored at 4 time points (0, 8, 16 and 24 minutes) at ambient temperature. Each assay is carried out in duplicate wells.

In data set [3] the test system is HIV-1. The experiment in a line: CEM cell assay, HIV inhibition in acutely infected cells (MTT). Particulars: Human immunodeficiency virus 1, CCRF-CEM, 168 h; CEM cells infected with HIV-1, 7 days, reduces cytopathicity by 50%; read-out: Antiviral Activity in Cell Culture (EC50). The format is cell-based. The method, then: as §1, §2, §3, §4

pEC50, pIC50: −log10 of the molar value.

Results on ten compounds are retold here after patent publication US6538006B1, “Retroviral protease inhibitors” (Pharmacia Corporation, priority 1998, dated 2003).

For `C[C@H](CS(C)(=O)=O)C(=O)N[C@@H](Cc1ccccc1)[C@H](O)CN1C[C@H]2CCCC[C@H]2C[C@H]1C(=O)NC(C)(C)C`, in data set [1], the “Cell Toxicity (TD50)” value is reported as 58,000 nM. Besides, the pIC50 (usually the negative decadic logarithm of the IC50, by convention in mol/L) in data set [2] is 8.15. In addition, in data set [3], the pEC50 (in general, the EC50 on a negative log10 scale, so that one unit is a factor of ten) is 7.38.

`COc1ccc(COC(=O)NC[C@@H](C)C(=O)N[C@@H](Cc2ccccc2)[C@H](O)CN2C[C@H]3CCCC[C@H]3C[C@H]2C(=O)NC(C)(C)C)cc1`: the “Cell Toxicity (TD50)” value in data set [1] was 2,000 nM. Besides, the pIC50 in data set [2] is 8.70. Further, the pEC50 in data set [3] was 7.28.

As for `CC(C)(C)NC(=O)[C@@H]1C[C@@H]2CCCC[C@@H]2CN1C[C@@H](O)[C@H](Cc1ccccc1)NC(=O)C[C@H](NC(=O)c1ccc2ccccc2n1)C(N)=O`, the “Cell Toxicity (TD50)” value in data set [1] was 5,000 nM. The pIC50 in data set [2] was 8.05. For the same compound, the pEC50 in data set [3] was 7.43.

Consider `C[C@@H](C(=O)N[C@@H](Cc1ccccc1)[C@H](O)CN1C[C@H]2CCCC[C@H]2C[C@H]1C(=O)NC(C)(C)C)C(C)(C)CN`, for which the “Cell Toxicity (TD50)” value in data set [1] was 59,000 nM. In data set [2], the pIC50 was 8.05. Also, the pEC50 in data set [3] was 7.01.

As to `C[C@@H](C(=O)N[C@@H](Cc1ccccc1)[C@H](O)CN1C[C@H]2CCCC[C@H]2C[C@H]1C(=O)NC(C)(C)C)C(C)(C)C(=O)O`, in data set [1], the “Cell Toxicity (TD50)” value was 50,000 nM. Also, the pIC50 in data set [2] is 7.64. Besides, the pEC50 in data set [3] is 6.74.

With `COc1ccc(COC(=O)NC[C@@H](C)C(=O)N[C@@H](Cc2ccccc2)[C@H](O)CN2C[C@H]3CCCC[C@H]3C[C@H]2C(=O)NC(C)(C)C)cc1` (relative stereo) [Example 4, Carbamic Acid, [3-[[3-[3-[[(1,1-Dimethylethyl)-amino]carbonyl]octahydro-2(1H)-isoquinolinyl]-2-hydroxy-1-(phenylmethyl)propyl]amino]-2-methyl-3-oxopropyl]-, (4-Methoxyphenyl)methyl Ester, [3S-[2(1R*,(S*),2S*),3α,4aβ,8aβ]]-], in data set [2], the inhibition (usually the drop in the measured response relative to a control, in per cent) at 10 µM is 3 to 100%.

Consider `C[C@H](CS(C)(=O)=O)C(=O)N[C@@H](Cc1ccccc1)[C@H](O)CN1C[C@H]2CCCC[C@H]2C[C@H]1C(=O)NC(C)(C)C` (relative stereo) [Example 6, 3-Isoquinolinecarboxamide, N-(1,1-Dimethylethyl)decahydro-2-[2-hydroxy-3-[[2-methyl-3-(methylsulfonyl)-1-oxopropyl]amino]-4-phenylbutyl]-, [3S-[2(2S*,3S*(R*)],3α,4aβ,8aβ]]-], for which the inhibition at 10 µM in data set [2] was in the range of 3 to 100%.

As to `CC(C)(C)NC(=O)[C@@H]1C[C@@H]2CCCC[C@@H]2CN1C[C@@H](O)[C@H](Cc1ccccc1)NC(=O)C[C@H](NC(=O)c1ccc2ccccc2n1)C(N)=O` (relative stereo) [Example 10, Butanediamide, N^4-[3-[3-[[((1,1-Dimethylethyl)-amino]carbonyl]octahydro-2(1H)-isoquinolinyl]-2-hydroxy-1-(phenylmethyl)propyl]-2-[(2-quinolinylcarbonyl)amino]-, [3S[2[1R*(R*),2S*],3α,4aβ,8aβ]]-], the inhibition at 10 µM in data set [2] was in the range of 3 to 100%.

Take `C[C@@H](C(=O)N[C@@H](Cc1ccccc1)[C@H](O)CN1C[C@H]2CCCC[C@H]2C[C@H]1C(=O)NC(C)(C)C)C(C)(C)C(N)=O` (relative stereo) [Example 12, Butanamide, 4-[[3-[3-[[(1,1-Dimethylethyl)-amino]carbonyl]octahydro-2(1H)-isoquinolinyl]-2-hydroxy-1-(phenylmethyl)propyl]amino]-2,2,3-trimethyl-4-oxo-, [3S-[2[1R*(S*),2S*],3α,4aβ,8aβ]]-]: the inhibition at 10 µM in data set [2] was 3 to 100%.

Regarding `C[C@@H](C(=O)N[C@@H](Cc1ccccc1)[C@H](O)CN1C[C@H]2CCCC[C@H]2C[C@H]1C(=O)NC(C)(C)C)C(C)(C)C(=O)O` (relative stereo) [Example 12C, butanoic acid, 4-[[3-[3-[[(1,1-dimethylethyl)amino]carbonyl]octahydro-2(1H)-isoquinolinyl]-2-hydroxy-1-(phenylmethyl)propyl]amino]-2,2,3-trimethyl-4-oxo-, [3S-[2[1R*(S*),2S*],3α,4aβ,8aβ]]-], the inhibition at 10 µM in data set [2] fell in the range of 3 to 100%.
